# Patent US12516130B2, “Single-domain antibody for targeting prostate specific membrane antigen (PSMA)” (NATIONAL INSTITUTE FOR BIOTECHNOLOGY IN THE NEGEV LTD., priority 2019, dated 2026)
# B1: NB7 K43PrK: NB7 with lysine K43 changed to the non-natural amino acid PrK (protein)
# VHH: QVQLQESGGGSVQAGGSLRLSCTAPGYTDSNYYMSWFRQAPGXEREWVAGVNTGRGSTSYADSVKGRFTISQDNAKNTMFLQMNSLKPEDTAIYYCAVAACHFCDSLPKTQDEYILWGQGTQVTVSSAAAYPYDVPDYGS
# modifications: non-natural residues; left off: small tags and cut ends
# notes: NB7 with lysine K43 changed to the non-natural amino acid PrK
# Assays:
# PC3-PIP cells [1] = assay: Mitochondrial potential assay (TMRE); type: cell-based; details: 24 h, 1.5 μg/ml DOX or equivalent molar amount
# Description: PC3-PIP cells (2×10^4) were seeded on 96-well plates. […] After 24 h, tetramethylrhodamine ethyl ester (TMRE; Abcam, UK) was added according to the protocol provided by the manufacturer. Fluorescence intensity was measured at an excitation wavelength of 549 nm and an emission wavelength of 575 nm.
# [2] = tested on: PC3-PIP and PC3-flu cells; assay: Confocal imaging of NB7cys, DOX and NB7cysDOX internalization; type: cell-based; details: 15 min, 1.5 μg/ml DOX or molar equivalent
# PC3-PIP cells [3] = assay: Cell quantification assay; type: cell-based; details: 24 h, 1.5 μg/ml DOX or equivalent molar amount
# Description: PC3-PIP cells (5×10^4) were seeded in 24-well plates. […] After 24 h of treatment, the number of cells in each well was counted using the Countess II automated cell counter (Invitrogen).
# PC3-PIP cells [4] = assay: Cell viability assay (propidium iodide, FACS); type: cell-based; details: 24 h, 1.5 μg/ml DOX or equivalent molar amount
# Description: PC3-PIP cells were grown and treated as described in the cell quantification assay section, above. The cells were harvested, incubated with 0.5 μg propidium iodide (PI; Biolegend), and their fluorescence intensity was measured in a BD C6 flow cytometer.
# PC3-PIP xenografts [5] = assay: In vivo tumor growth inhibition; design: species or system athymic nude mice; details: fewer than in saline group
# Description: PC3-PIP xenografts were grown in athymic nude mice, as described in the in vivo optical imaging section, above. When the average tumor size reached 200 mm^3, the mice were divided into three groups (controlled for average tumor size), each subjected to a different treatment: 150 μl saline (n=7), 2 mg/kg DOX (n=8), or 1.4 mg/kg (˜40 μg) NB7cysDOX (n=8). The treatment was administered to the tail vein twice a week for three consecutive weeks. At each sample point, the tumor volume was calculated (V=0.5×L×W×H), as previously described (Tomayko and Reynolds, 1989). A mouse was euthanized when tumor volume reached 1,500 mm^3 or when its physical condition deteriorated, according to the guidelines of the Committee for the Ethical Care and Use of Animals in Research at BGU. The estimated tumor volume prior to euthanasia and the rate-based T/C were determined as described previously (Aston et al., 2017).
# PC3-PIP xenografts [6] = assay: Histology of treated tumors (IF, H&E, TUNEL); details: 4 d after treatment termination
# Description: Four days following the final dose of each treatment in the in vivo tumor growth inhibition assay, the mice were euthanized, and their xenografts were fixated in 4% formaldehyde and embedded in paraffin. Tumor sections (5 μm thickness) were subjected to hematoxylin and eosin (H&E) staining, TUNEL assay, and immunofluorescence (IF), as previously described (Pittala et al., 2018, Fischer et al., 2008). […] 4′,6-diamidino-2-phenylindole (DAPI) was used for nuclei staining. […] TUNEL, PI, and IF were visualized in a confocal microscope.
# PC3-PIP (PSMA+) cells = assay: FACS cell binding assay, PC3-PIP cells; type: cell-based; details: effect of K43PrK mutation
# Description: Once the cells reached 70% confluence, 10^5 cells were added to each well of 96-well U-shaped bottom plates (Greiner Bio-One, Austria), centrifuged at 150 g for 5 min, and washed with PBSA (namely, PBS+1 g/1 BSA). NBs were added to the cells in concentrations of 0.1, 0.5, 2, 5, 10, 20, 50, 100, 500, or 1000 nM. The cells were incubated with the NBs for 2 h, followed by three PBSA washing steps. An anti-His antibody conjugated to fluorescein isothiocyanate (FITC) (Invitrogen) was then added at a dilution of 1:100, incubated with the cells for 1 h, and washed three times with PBSA. The cells were kept on ice throughout the experiment. The fluorescence of each sample was measured using an Accuri C6 flow cytometry analyzer (BD Biosciences, CA). Each experimental condition was repeated three times. To generate a titration curve, the value for each sample was determined using the equation:
# [formula] where Fsample is the mean fluorescence value, Flow is the fluorescence at the lowest concentration for PC3-PIP cells, and Fhigh is the fluorescence at the highest concentration for PC3-PIP cells. A binding curve was generated using GraphPad Prism 5.0.
Molecule,mitochondrial membrane potential (TMRE signal) (PC3-PIP cells [1]),cellular distribution in PC3-PIP and PC3-flu cells [2],number of cells versus untreated cells (PC3-PIP cells [3]),PI signal (late apoptosis and necrosis) (PC3-PIP cells [4]),"mice reaching maximal tumor size, DOX versus NB7cysDOX groups (PC3-PIP xenografts [5])",H&E staining of tumors (PC3-PIP xenografts [6]),TUNEL assay of tumors (PC3-PIP xenografts [6]),"binding to PC3-PIP cells versus NB7, FACS (PC3-PIP (PSMA+) cells)"
Carbonyl cyanide 4-(trifluorornethoxy) phenythydrazone [FCCP],significantly reduced the mitochondrial membrane potential,–,–,–,–,–,–,–
"COc1cccc2c1C(=O)c1c(O)c3c(c(O)c1C2=O)C[C@@](O)(C(=O)CO)C[C@@H]3O[C@H]1C[C@H](N)[C@H](O)[C@H](C)O1 [DOX, doxorubicin]",similarly reduced the mitochondrial membrane potential,diffused spontaneously into both PC3-PIP and PC3-flu cells,significantly reduced the number of cells in the well,considerably increased the signal,not significantly different from each other,"necrotic, fewer, and with large vacancies between cells",significant apoptosis,–
B1,–,–,–,–,–,–,–,no significant change in binding
